Measured values: paper PMC6685790 (Nature structural & molecular biology, 2008)
Changes are numbered by the printed parent chain. Like-named read-outs stand apart in the source and are kept apart here.

What was measured:
[1] = read-out: Zn^2+ complexation KD; ref [52]; cited from earlier work
[2] = test system: Zn^2+-activated GlyRs (ZAGs); type: cell-based, human
[3] = molecular target: T1, GlyR α1^F99A (Homo sapiens, UniProt P23415, F127A); test: Whole-cell recording of substituted GlyR in HEK cells; type: cell-based
T1 sequence (P23415 29-457 F127A): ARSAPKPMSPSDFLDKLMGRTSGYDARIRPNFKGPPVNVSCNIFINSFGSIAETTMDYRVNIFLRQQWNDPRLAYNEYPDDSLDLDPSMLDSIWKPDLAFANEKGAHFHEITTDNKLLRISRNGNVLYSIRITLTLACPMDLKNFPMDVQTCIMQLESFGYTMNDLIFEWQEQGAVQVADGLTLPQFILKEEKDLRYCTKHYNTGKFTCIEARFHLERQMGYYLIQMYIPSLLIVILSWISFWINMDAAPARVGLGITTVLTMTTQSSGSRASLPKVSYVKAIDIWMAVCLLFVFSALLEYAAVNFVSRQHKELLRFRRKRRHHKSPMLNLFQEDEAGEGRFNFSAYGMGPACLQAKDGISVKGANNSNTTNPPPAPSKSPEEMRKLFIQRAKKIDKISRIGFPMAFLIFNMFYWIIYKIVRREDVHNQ

[4] = molecular target: T2, GlyR α1^L98A (Homo sapiens, UniProt P23415, L126A); test: as above; type: cell-based
T2 sequence (P23415 29-457 L126A): T1 sequence (P23415 29-457 F127A) with L98A, A99F

[5] = molecular target: T3, GlyR α1^L134A (Homo sapiens, UniProt P23415, L162A); test: as above; type: cell-based
T3 sequence (P23415 29-457 L162A): T1 sequence (P23415 29-457 F127A) with A99F, L134A

[6] = molecular target: T4, GlyR α1^F108A (Homo sapiens, UniProt P23415, F136A); type: cell-based
T4 sequence (P23415 29-457 F136A): T1 sequence (P23415 29-457 F127A) with A99F, F108A

## O=C(O)CNC(CO)(CO)CO [tricine]
[1]
  Kd: 10 µM

## c1ccc(CN(CCN(Cc2ccccn2)Cc2ccccn2)Cc2ccccn2)nc1 [TPEN, N,N,N’,N’-tetrakis-(2-pyridylmethyl)-ethylenediamine]
[2]; TPEN 100 μM, α1^L98A, α1^F99A, α1^F108A, α1^L134A
  Effect on leak current (component caused by Zn^2+ contamination): reduced

## O=C1C[C@@H]2OCC=C3CN4CC[C@]56c7ccccc7N1[C@H]5[C@H]2[C@H]3C[C@H]46 [strychnine]
[3]
  Attenuation of leak current: 100%
[2]
  Loss of potency inhibiting leak current compared to glycine-activated currents: 10 fold
[4]
  Effect on Zn^2+ activation: inhibited
[5]
  Attenuation of leak current: 90 ± 4%

## picrotoxin
[4]; picrotoxin, α1^L98A, Zn^2+ EC50-activated currents (Fig. 2f)
  Effect on Zn^2+ activation: inhibited

## N#C[B-](c1ccccc1)(c1ccccc1)c1ccccc1 [CTB, cyanotriphenylborate]
[6]
  Effect on Zn^2+-activated currents: abolished
[2]; CTB 20 μM, considered full abolition of receptor-mediated leak
  Standing current remaining after block of spontaneous leak: less than 50 pA
